The values that follow come from patent publication US5463071A, “5-membered heterocyclic compounds, processes for preparing them and pharmaceutical compositions containing these compounds” (Dr. Karl Thomae GmbH, priority 1991, dated 1995).

For one data set, the system named is human thrombocytes. In words: Fibrinogen binding to human thrombocytes (125I fibrinogen, gel-filtered platelets). To be noted: ADP, 20 minutes at ambient temperature, read-out: Fibrinogen-binding test IC50. The method, then: 1. Fibrinogen binding to human thrombocytes The blood obtained by puncturing an antecubital vein is anticoagulated with trisodium citrate (final concentration: 13 mM) and centrifuged for 10 minutes at 170×g. The supernatant platelet-rich plasma is poured onto a Sepharose 2B column (Pharmacia) and eluted with a solution of 90 mM common salt, 14 mM trisodium citrate, 5 mM glucose and 50 mM Tris(hydroxymethyl)aminomethane, adjusted to pH 7.4. The gel-filtered platelets (GFP) appearing before the plasma proteins are used for the binding experiments. 50 μl of a 60 mM calcium chloride solution, 50 μl of a 0.6 mM adenosine diphosphate solution, 100 μl of substance solution or solvent and 50 μl of fibrinogen solution (containing 3 μg of ^125 I fibrinogen) are added to 750 μl of GFP and incubated for 20 minutes at ambient temperature. The non-specific binding is determined in the presence of 3 mg/ml of cold fibrinogen. 900 μof the incubated material are carefully pipetted onto 250 μof silicon oil (AP 38: AR 20, 1:2 v/v, Wacker Chemie) in Eppendorf tubes and centrifuged for 2 minutes at 10,000×g. The aqueous supernatant and part of the oil are drawn off, the tips of the tubes are cut off together with the platelet pellet and the quantity of bound fibrinogen is determined in a gamma counter. The concentration of substance which brings about a 50% inhibition in fibrinogen binding is determined from a series of concentrations and is given as the IC50 value.

Data set [1] deals with collagen-induced platelet aggregation in platelet-rich plasma. The data set can be described thus: Antithrombotic activity: inhibition of collagen-induced thrombocyte (platelet) aggregation, Born and Cross method. The format is cell-based, healthy volunteers (human). To be noted: Homo sapiens, 10 minutes preincubation at 37° C. How it is done:
2. Antithrombotic activity Method The thrombocyte aggregation is measured using the Born and Cross method (J. Physiol. 170: 397 (1964)) in platelet-rich plasma taken from healthy volunteers. To inhibit coagulation the blood is mixed with 3.14% sodium citrate in a ratio by volume of 1:10. Collagen-induced aggregation The pattern of the decrease in optical density of the platelet suspension is photometrically measured and recorded after the addition of the aggregation-triggering substance. The rate of aggregation is concluded from the angle of inclination of the density curve. The point on the curve where there is maximum light transmittance is used to calculate the optical density. The amount of collagen used is as small as possible but sufficient to produce an irreversible reaction curve. Standard commercial collagen produced by Hormonchemie of Munich is used. Before the addition of the collagen the plasma is incubated for 10 minutes with the substance at 37° C. From the measurements obtained an EC50 is determined graphically, indicating a 50% change in the optical density in terms of the inhibition of aggregation.

Data set [2] can be described thus: Tolerance after intravenous administration to mice. The data set is classed as in vivo. To be noted: 30 mg/kg intravenous, three mice each.

A word on the IC50: it is the concentration that inhibits the measured activity by half. One may read the EC50 as the concentration at which the effect is half-maximal. Read a low EC50 as a more potent agent. Regarding `COC(=O)CCc1ccc(-c2nc(-c3ccc(C(=N)N)cc3)n[nH]2)cc1` [2(8), 3-(4-amidino-phenyl)-5-[4-(2-methoxycarbonyl-ethyl)-phenyl]-1,2,4-triazole], the IC50 in the data set with human thrombocytes worked out at 44000 nM. In data set [1], this molecule displayed an EC50 of 6400 nM.

For the molecule `Cl.N=C(N)c1ccc(-c2ccc(-n3cnc(CC(N)C(=O)O)c3)nn2)cc1` (centres unmarked) [1(2), 1-[6-(4-amidino-phenyl)-3-pyridazinyl]-4-(2-amino-2-carboxy-ethyl)-imidazole-hydrochloride], the IC50 with human thrombocytes amounted to 18 nM. For the same molecule, the “deaths after intravenous administration” value in data set [2] was “no animals died”. The molecule further registered an EC50 in data set [1] of 90 nM.

For `N=C(N)c1ccc(-c2nnn(-c3ccc(CCC(=O)O)cc3)n2)cc1` [1(3), 5-(4-amidino-phenyl)-2-[4-(2-carboxy-ethyl)-phenyl]-tetrazole], the IC50 with human thrombocytes was found to be 220 nM. This molecule came in with an EC50 in data set [1] of 11000 nM.

Take `N=C(N)c1ccc(-c2ccc(-n3cnc(CCC(=O)O)c3)nn2)cc1` [Example 1]: the IC50 with human thrombocytes is 73 nM. Moreover, the “deaths after intravenous administration” value in data set [2] was “no animals died”. The same molecule gave an EC50 in data set [1] of 130 nM.

`N=C(N)c1ccc(-c2ccc(-n3cnc(CC(O)C(=O)O)c3)nn2)cc1` (centres unmarked) [1(1), 1-[-6-(4-amidinophenyl)-3-pyridazinyl]-4-(2-carboxy-2-hydroxy-ethyl)-imidazole]: in the data set on human thrombocytes, the IC50 was determined as 38 nM. The same molecule returned an EC50 in data set [1] of 90 nM.

Regarding `N=C(N)c1ccc(-c2ccc(-c3n[nH]c(SCC(=O)O)n3)cc2)cc1` [1(39), 3-(4-amidino-4'-biphenylyl)-5-carboxymethylthio-1,2,4-triazole], the half-inhibitory concentration (IC50) in the data set with human thrombocytes came to 39 nM. Further, the EC50 in data set [1] amounted to 3700 nM.
